Measured values reported in patent US7407953B2, “Wound healing” (Photopharmica Limited, priority 2007, dated 2008).
Values joined by “and” are separate entries in the source; they are usually repeats but may differ in a detail not shown here. Identical values can stand only once.

How the values were obtained:
intimal hyperplasia = details: local photodynamic action; Heckenkamp et al 2000; cited from earlier work
chronic leg ulcers = test: Phase IIa randomised, placebo controlled trial, PDT in chronic leg ulcers; format: in vivo, patients; details: 500 μM cream, 50 J/cm^2
Experimental: 16 patients with chronic leg ulcers were recruited for the study. All patients had ulcers that had been present for at least 3 months prior to treatment. After randomisation, 8 patients were treated with 3,7-bis(N,N-dibutylamino)phenothiazin-5-ium bromide PDT and 8 patients were treated with placebo. Ulcer area was measured before treatment and at 1 week, 1 month, 2 months and 3 months post treatment using a Visitrak system. Photographs were taken of the ulcers before treatment and at 24 h, 1 week, 1, 2 and 3 months post treatment.
Placebo cream was Unguentum Merck: water (1:2). 3,7-bis(N,N-dibutylamino)phenothiazin-5-ium bromide cream was 500 μM 3,7-bis(N,N-dibutylamino)phenothiazin-5-ium bromide in Unguentum Merck:water (1:2). For the treatment a 1 mm depth of cream was spread over the surface of the ulcer. The ulcer was then left, occluded under film, shielded from light for 15 minutes. At the end of the 15 minute incubation, excess cream was removed and the ulcer was illuminated using a CureLight 01 (obtainable from Photocure) at a light dose of 50 J/cm^2.

[1] = tested on: full thickness wound in flank skin of Wistar rat; test: Wound healing in the Wistar rat, no light; format: in vivo; details: for % Wound area remaining, no light, 2 days post treatment / % Wound area remaining, no light, 4 days post treatment / % Wound area remaining, no light, 6 days post treatment: 100 mg topical, not illuminated
Experimental: On day 0, animals were anaesthetised and a single standardised full thickness wound (7.5 mm×7.5 mm) was created in the flank skin of each experimental animal. Wounds were dressed with a 1.5×1.5 cm pad of encapsulated gauze moistened with a fixed volume of sterile saline.
Wounds were allowed to heal without intervention for a period of 4 days, other than the replacement of saline moistened gauze and film dressings, as required.
On day 4 standard secondary dressings were removed. 100 mg of 100 μM or 500 μM 3,7-bis(N,N-dibutylamino)phenothiazin-5-ium bromide cream was applied to the wound. The wounds were not illuminated. The area of the wounds were measured prior to treatment (day 4) and on day 6, 8 and 10.

[2] = tested on: full-thickness excisional wounds in flank skin of Wistar rats; test: Closure of full thickness excisional wounds in Wistar rat, PDT; format: in vivo
Experimental: 3,7-bis(N,N-dibutylamino)phenothiazin-5-ium bromide was solubilised in ethanol to give a concentration of 10 mg/ml. This was diluted in Unguentum M: 80% water, to give creams with final concentrations of 100 μM or 500 μM of 3,7-bis(N,N-dibutylamino)phenothiazin-5-ium bromide.
The above creams were used on the closure of full thickness excisional wounds in Wistar rats with exposure to light. The effect of topical application of 50 mg of 3,7-bis(N,N-dibutylamino)phenothiazin-5-ium bromide (at concentrations of 100 μM and 500 μM) followed by photo-activation with 688 nm laser light was investigated and compared to that of application of the drug delivery vehicle (Unguentum M) followed by 688 nm photo-activation. The light dose used was 50 J/cm^2. Wound repair was measured in terms of the closure of standardised full-thickness excisional wounds created in the flank skin of adult Wistar rats.

[3] = tested on: full thickness wound in flank skin of diabetic (db/db) mice; test: Wound healing in spontaneous diabetic (db/db) mice, PDT; format: in vivo, mice (c57BLKs/Bom db/db)
From the text: When wounds are created on (db/db) diabetic mice the wounds heal more slowly compared to the non diabetic mice. This delayed healing may be caused by a lack of vasculature to feed the wound. The delayed healing model is representative of a chronic wound, and wound healing effects of drugs can be more closely monitored and more easily measured.
18 animals were included in this study. 6 control non diabetic mice (db/+), 6 control diabetic (db/db) mice and 6 (db/db) PDT treated diabetic mice.
The 3,7-bis(N,N-dibutylamino)phenothiazin-5-ium bromide was formulated in ethanol and Unguentum M as described in Example 2 below at a concentration of 0.266 mg/mL.
On day 0, the animals were anaesthetised and a single standardised full thickness wound (7.5 mm×7.5 mm) was created in the flank skin of each experimental animal. Wounds were then dressed with a 1.5×1.5 cm pad of encapsulated gauze moistened with a fixed volume of sterile saline solution. […]
Image Pro image analysis software (version 4.1.0.0, obtained from Media Cybernetics, USA) was used to calculate wound closure from wound images in each of the experimental groups over time. For each wound at each time point—open wound area was measured and expressed in terms of % wound area relative to day 4 (treatment day).

[4] = tested on: chronic non healing leg ulcers or diabetic foot ulcers; test: Clinical study, PDT on wound healing of chronic ulcers; format: in vivo, patients; details: 500 μM cream topical
From the text: After ethical review board approval and written informed participant consents were obtained, patients were recruited, provided they satisfied the ethically approved inclusion criteria. MHRA approval had been obtained.
Patients were recruited who had chronic non healing leg ulcers or diabetic foot ulcers. These patients had shown little or no wound healing for a number of weeks prior to treatment.
For the treatment 3,7-bis(N,N-dibutylamino)phenothiazin-5-ium bromide, formulated in ethanol and Unguentum M as described in Example 2 above at 500 μM, was applied topically to the ulcer surface and surrounding ulcer margin (5 mm) giving a cream depth of up to 5 mm. The ulcer was then left, not occluded, but in minimal lighting, for 15 minutes. After this pre-incubation time, the cream was rubbed into the ulcer so underlying skin/tissue could be seen through the cream. If this was not possible excess cream was removed. The ulcer was then illuminated using a broad band CureLight lamp (obtainable from PhotoCure) at a fluence rate of 20-50 mW/cm^2 giving a total light dose of 50 J/cm^2.
The ulcer area was measured pre treatment and after 1 week and one month.

wounds = details: literature conclusions (Parekh 1999, Lambrects 2005, Hamblin 2003, Belmont 1999); cited from earlier work
[5] = tested on: rat skin flap reconstruction; details: Kubler et al 1996; cited from earlier work
[6] = individual patients 1-5, 50 J/cm^2 broad band light

CN(C)c1ccc2nc3ccc(=[N+](C)C)cc-3sc2c1 [methylene blue]
effect on intimal hyperplasia (intimal hyperplasia): retarding effect on intimal hyperplasia

CCCCN(CCCC)c1ccc2nc3ccc(N(CCCC)CCCC)cc3[s+]c2c1.[Br-] [3,7-bis(N,N-dibutylamino)phenothiazin-5-ium bromide]
healing as measured by the size of the wound, compared to placebo (chronic leg ulcers): Better healing
patients showing complete wound healing at 2 months (chronic leg ulcers; 2 out of 8 patients, placebo: none): 25%
patients showing complete wound healing at 3 months (chronic leg ulcers; 4 out of 8 patients, placebo: 1 out of 8 (12.5%)): 50%
% Wound area remaining, no light, 2 days post treatment ([1]; 100 μM cream): 62%
% Wound area remaining, no light, 4 days post treatment ([1]; 100 μM cream): 33%
% Wound area remaining, no light, 6 days post treatment ([1]; 100 μM cream): 25%
% Wound area remaining, no light, 2 days post treatment ([1]; 500 μM cream): 62%
% Wound area remaining, no light, 4 days post treatment ([1]; 500 μM cream): 30%
% Wound area remaining, no light, 6 days post treatment ([1]; 500 μM cream): 19%
wound healing, 500 μM vs 100 μM ([1]; no light): heal faster at a 500 μM concentration than at 100 μM
wound closure, light treatment vs compound alone ([2]; 100 μM cream, 50 mg topical, 688 nm laser light 50 J/cm^2): closed more rapidly
wound closure, higher dose vs lower dose ([2]; 500 μM cream vs 100 μM cream): closed more rapidly
adverse tissue responses, gross examination of wound and wound margin tissue ([2]; any treatment regime of the study): no adverse tissue responses were noted
% wound area (open wound area relative to day 4, treatment day) ([3]; diabetic db/db mice, 500 μM in Unguentum M topical + 25 J/cm^2 688 nm light, 3 days post treatment, 6 animals): 46%
rate of wound healing ([3]; in combination with light, treated diabetic mice vs control diabetic mice): substantial increase in the rate of wound healing
area of the treated ulcers following the photodynamic treatment ([4]; 50 J/cm^2): reduction in the area of the treated ulcers
Percentage reduction in ulcer area at 1 month compared to pre treatment [4, 6]: 13% and 8% and 10% and 50% and 34%
Percentage reduction in ulcer area at 1 week compared to pre treatment [4, 6]: 8% and 14% and 0% and 23%

Poly-lysine-chlorin e6
effect of PDT on wound healing (wounds): did not accelerate wound healing

Photofrin
effect of PDT on wound healing (wounds): delay wound healing
effect on wound healing [5]: delayed wound healing
